Like-named read-outs stand apart in the source and are kept apart here.
Columns and labels:
[1] = behavioural study in rats: anxiety induced by a new environment (rearings and movements); type: in vivo, male Sprague-Dawley rats; settings: for ED50: Rattus norvegicus, 0.5 h
Text: The xanthines obtained in accordance with the preceding Examples were the subject of a behavioural study in rats as a function of the anxiety induced by a new environment. In rats, anxiety is manifested by rearing the animal on its two hind paws, whilst locomotive activity is expressed by their movements.
A state of anxiety is induced by confronting "naive" male Sprague-Dawley (Iffa-Credo, France) rats weighing from 260 to 300 g with a new environment in the form of cages of Macrolon (30×25 cm) which are situated in a sound-proofed air-conditioned room (22° C./50% relative humidity).
The number of rearings and movements is automatically determined by means of infrared photoelectric cells which only emit electrical pulses for the active movements of the animal and not for its static movements, such as those of its head and tail, for reasons of reproducibility. These photoelectric cells scan the cages at two different levels so as to distinguish the standing-up movements from the other movements. The number of rearings and movements is counted by the two rows of photoelectric cells, memorised and read out using a printer in accordance with a pre-established program.
The tested compound in solution in the form of its sodium salt is orally administered by oesophagus probe (the reference administration being formed by 6 ml/kg of distilled water) 30 minutes before the animals are placed in the cages. The number of rearings and movements is determined during the 15 minutes after they have been put into the cages in relation to the effect generated by the reference administration.
The ED 50 dose (expressed in mg/kg), i.e. the quantity of substance required to bring about a 50% variation in the motive activity in relation to the reference administration, is determined from the development of the effects of the tested substances on the number of movements and rearings as a function of the progressive doses administered expressed as a percentage of the movements and rearings counted for the reference administration.
The gradients of the regression curves corresponding to the movements and to the rearings are compared by recording the value of the gradient of the movement curve on the abscissa (d) and the value of the gradient of the rearing curve on the ordinant (r) of a system of rectungular axes.
The ratio of the gradient of the movements to that of the rearings is also determined, enabling the specificity of effect of a given substance on the anxiety state to be assessed.
The effect of a substance is determined by its position relative to the curve d=r of gradient=1. The substances situated on this curve have a similar effect on the rearings and movements, being sedatives with a non-specific effect (S.N.). For these compounds, the ED 50 value quoted corresponds to the mean taken from the two regression curves.
These compounds are sedatives of anxiolytic character (S.A.). In this case, the ED 50 value is calculated from the regression curve of the rearings.

[2] = rectal temperature in mice; type: in vivo; settings: p.o.
Text: (§1) The compounds of Examples 1, 4, 11 and 12 were subjected to behavioural tests in accordance with "predictability and specificity of behaviour screening tests for neuroleptics", P. Worms and K. G. Lloyd, […], Vol. 5, pages 445-450, 1979, comprising: […]

[3] = climbing behaviour induced by apomorphine in mice; type: in vivo; settings: p.o.
Text: as §1

[4] = hypomotility induced by amphetamine in rats; type: in vivo; settings: p.o.
Text: as §1

[5] = analgesia induced by pentobarbital in mice; type: in vivo; settings: p.o.
Text: as §1

[6] = catalepsy induced by haloperidol in rats; type: in vivo; settings: p.o.
Text: as §1

[7] = stereotype behaviour induced by apomorphine in rats; type: in vivo; settings: p.o.
Text: as §1

in vivo [8] = settings: rat, po, solution in DMSO
Text: (b) Determination of the acute toxicity LD 50 in male and female rats in solution is DMSO (reference DMSO alone) in accordance with C.

[9] = base screening: anti-histamine in vitro
Text: (f) anti-histamine in vitro as determined in accordance with R. Magnus, Arch f.d., ges. physiol., Vol. 102, pages 123-151, 1904.

[10] = base screening: diuretic in male rats; type: in vivo; settings: Rattus norvegicus, read-out: minimal effective dose producing a significant response, diuretic (c)
Text: (c) diuretic in male rats, as determined in accordance with W. L. Lipschitz, Z Hadidian and A. Kerpcsar, JPET, Vol. 79, pages 97-110, 1943

[11] = base screening: anti-allergic in male and female rats; type: in vivo; settings: for minimal effective dose: Rattus norvegicus, read-out: minimal effective dose producing a significant response, anti-allergic (d)
Text: (d) anti-allergic in male and female rats, as determined in accordance with J. Goose and A. M. J. N. Blair, Immunol., Vol. 16, pages 749-760, 1969

[12] = base screening: bronchodilatory in vitro
Text: (e) bronchodilatory in vitro as determined in accordance with F. P. Luduena et al., Arch. int. Pharmacodyn, Vol. 111, pages 392-400, 1957

in vivo [13] = settings: mouse, po, solution in DMSO
[14] = oral, sodium salt in solution, 30 min before test, 15 min count, S.N.: mean of two regression curves, S.A.: from rearings curve, read-out: ED 50
[15] = female, read-out: LD 50, rats female
[16] = male, read-out: LD 50, rats male
[17] = female, read-out: LD 50, mice female
[18] = male, read-out: LD 50, mice male

With `CCCCn1c(=O)n(CC)c(=O)c2[nH]c(C)nc21` [Example 8, 1-ethyl-3-butyl-8-methyl xanthine] the ED50 [1, 14] was 1.02 mg/kg.

Work on `CN(C)CCCN1c2ccccc2Sc2ccc(Cl)cc21` [chlorpromazine, reference compound] yielded an ED50 ([1]; po) of 21 mg/kg.

In the case of `CCCn1c(=O)c2[nH]c(C)nc2n(CC(C)C)c1=O` [Example 12, 1-propyl-3-isobutyl-8-methyl xanthine], the rectal temperature [2] is reported as “hypothermal effect at 2 mg/kg p.o”, the “climbing behaviour induced by apomorphine” value (shortened to “climbing behaviour induced”) [3] is reported as “inhibition at 1 mg/kg p.o” and the “hypomotility induced by amphetamine” value [4] is reported as “antagonism at 0.5 mg/kg p.o”. For the same molecule, the ED50 [1, 14] was 0.25 mg/kg, the “analgesia induced by pentobarbital” value [5] was “potentialisation at 0.5 mg/kg p.o” and the “catalepsy induced by haloperidol” value [6] was “potentialisation at 1 mg/kg p.o”. The “stereotype behaviour induced by apomorphine” value (from here on “stereotype behaviour induced”) [7] was “no antagonism up to 8 mg/kg p.o”, the LD50 (in vivo [8]; [15]) was 19 mg/kg and the LD50 (in vivo [8]; [16]) was 28 mg/kg.

Work on `C=CCn1c(=O)c2[nH]c(C)nc2n(CCC)c1=O` [Example 6, 1-allyl-3-propyl-8-methyl xanthine] yielded an ED50 [1, 14] of 0.27 mg/kg.

For `C=CCn1c(=O)c2[nH]c(CC)nc2n(CCCC)c1=O` [Example 5, 1-allyl-3-butyl-8-ethyl xanthine], the “minimal effective concentration producing a significant response, anti-histamine (f)” value [9] was 100 µg/mL, the minimal effective dose [10] was 2.5 mg/kg and the “minimal effective dose producing a significant response, anti-allergic (d)” value [11] was “no effect”. For the same molecule, the “minimal effective concentration producing a significant response, bronchodilatory (e)” value [12] was 5 µg/mL and the ED50 [1, 14] was 6.24 mg/kg.

For `C=CCn1c(=O)c2[nH]cnc2n(CC(C)C)c1=O` [Example 3, 1-allyl-3-isobutyl xanthine], the “minimal effective concentration producing a significant response, anti-histamine (f)” value [9] was 200 µg/mL, the minimal effective dose [10] was 5 mg/kg and the “minimal effective dose producing a significant response, anti-allergic (d)” value [11] was “no effect”. The “minimal effective concentration producing a significant response, bronchodilatory (e)” value [12] was “no effect” and the ED50 [1, 14] was 0.98 mg/kg.

For `C=CCn1c(=O)c2[nH]c(C)nc2n(CC(C)C)c1=O` [Example 4, 1-allyl-3-isobutyl-8-methyl xanthine], the rectal temperature [2] was “hypothermal effect at 2 mg/kg p.o”, the “minimal effective concentration producing a significant response, anti-histamine (f)” value [9] was “no effect” and the minimal effective dose [10] was 20 mg/kg. The “climbing behaviour induced” value [3] was “inhibition at 1 mg/kg p.o”, the “hypomotility induced by amphetamine” value [4] was “antagonism at 0.5 mg/kg p.o” and the minimal effective dose [11] was 50 mg/kg. For the same molecule, the “minimal effective concentration producing a significant response, bronchodilatory (e)” value [12] was “no effect”, the ED50 [1, 14] was 0.25 mg/kg and the Effect ([1]; sedative/anxiolytic class) was “S.N”. The “analgesia induced by pentobarbital” value [5] was “potentialisation at 0.5 mg/kg p.o”, the “catalepsy induced by haloperidol” value [6] was “potentialisation at 1 mg/kg p.o” and the “stereotype behaviour induced” value [7] was “no antagonism up to 8 mg/kg p.o”. For the same molecule, the LD50 (in vivo [8]; [15]) was 17 mg/kg, the LD50 (in vivo [8]; [16]) was 23 mg/kg and the LD50 (in vivo [13]; [17]) was 49 mg/kg. For the same molecule, the LD50 (in vivo [13]; [18]) was 79 mg/kg.

For `CCCn1c(=O)c2[nH]c(C)nc2n(CCC)c1=O` [Example 14, 1,3-dipropyl-8-methyl xanthine], the ED50 [1, 14] was 0.37 mg/kg.

With `CCCCn1c(=O)n(CCC)c(=O)c2[nH]c(C)nc21` [Example 11, 1-propyl-3-butyl-8-methyl xanthine] the rectal temperature [2] was “hypothermal effect at 2 mg/kg p.o”, the “minimal effective concentration producing a significant response, anti-histamine (f)” value [9] was 50 µg/mL and the minimal effective dose [10] was 0.25 mg/kg. The “climbing behaviour induced” value [3] was “inhibition at 1 mg/kg p.o”, the “hypomotility induced by amphetamine” value [4] was “antagonism at 0.5 mg/kg p.o” and the “minimal effective dose producing a significant response, anti-allergic (d)” value [11] was “no effect”. The “minimal effective concentration producing a significant response, bronchodilatory (e)” value [12] was 10 µg/mL, the ED50 [1, 14] was 0.35 mg/kg and the “analgesia induced by pentobarbital” value [5] was “potentialisation at 0.5 mg/kg p.o”. The “catalepsy induced by haloperidol” value [6] was “potentialisation at 1 mg/kg p.o”, the “stereotype behaviour induced” value [7] was “no antagonism up to 8 mg/kg p.o” and the LD50 (in vivo [8]; [15]) was 15 mg/kg. For the same molecule, the LD50 (in vivo [8]; [16]) was 25 mg/kg, the LD50 (in vivo [13]; [17]) was 151 mg/kg and the LD50 (in vivo [13]; [18]) was 91 mg/kg.

In the case of `C=CCn1c(=O)c2[nH]c(C)nc2n(CCCC)c1=O` [Example 1, 1-allyl-3-butyl-8-methyl xanthine], the rectal temperature [2] is reported as “hypothermal effect at 2 mg/kg p.o”, the “minimal effective concentration producing a significant response, anti-histamine (f)” value [9] is reported as 100 µg/mL and the minimal effective dose [10] is reported as 5 mg/kg. For the same molecule, the “climbing behaviour induced” value [3] was “inhibition at 1 mg/kg p.o”, the “hypomotility induced by amphetamine” value [4] was “antagonism at 0.5 mg/kg p.o” and the minimal effective dose [11] was 2.5 mg/kg. The “minimal effective concentration producing a significant response, bronchodilatory (e)” value [12] was 100 µg/mL, the ED50 ([1]; po) was 0.14 mg/kg and the “analgesia induced by pentobarbital” value [5] was “potentialisation at 0.5 mg/kg p.o”. The “catalepsy induced by haloperidol” value [6] was “potentialisation at 1 mg/kg p.o” and the “stereotype behaviour induced” value [7] was “no antagonism up to 8 mg/kg p.o”.

In the case of `Cn1c(=O)c2[nH]cnc2n(C)c1=O` [theophylline, reference compound], the action profile ([1]; conclusion from Table 3) is reported as “psychostimulating” and the “effect on the anxiety state” value ([1]; conclusion from Table 3) is reported as “does not have any effect on the anxiety state”.

With `CCCCn1c(=O)n(CC)c(=O)c2[nH]c(CC)nc21` [Example 9, 1,8-diethyl-3-butyl xanthine] the “minimal effective concentration producing a significant response, anti-histamine (f)” value [9] was 50 µg/mL, the minimal effective dose [10] was 5 mg/kg and the “minimal effective dose producing a significant response, anti-allergic (d)” value [11] was “no effect”. For the same molecule, the “minimal effective concentration producing a significant response, bronchodilatory (e)” value [12] was 25 µg/mL and the ED50 [1, 14] was 2.38 mg/kg.

`Cc1nc2c([nH]1)c(=O)n(CC(C)C)c(=O)n2CC(C)C` [Example 15, 1,3-diisobutyl-8-methyl xanthine] showed an ED50 [1, 14] of 0.42 mg/kg.

In the case of `C=CCn1c(=O)c2[nH]cnc2n(CCCC)c1=O` [Example 2, 1-allyl-3-butyl xanthine], the “minimal effective concentration producing a significant response, anti-histamine (f)” value [9] is reported as 100 µg/mL, the minimal effective dose [10] is reported as 10 mg/kg and the minimal effective dose [11] is reported as 10 mg/kg. For the same molecule, the “minimal effective concentration producing a significant response, bronchodilatory (e)” value [12] was 25 µg/mL, the ED50 [1, 14] was 1.6 mg/kg and the LD50 (in vivo [8]; [15]) was over 200 mg/kg. It also gave an LD50 (in vivo [8]; [16]) of over 200 mg/kg.

Work on `C=CCn1c(=O)n(CCCC)c(=O)c2[nH]c(C)nc21` [Example 10, 1-butyl-3-allyl-8-methyl xanthine] yielded an ED50 [1, 14] of 3.95 mg/kg.

`C=CCn1c(=O)c2[nH]c(C)nc2n(CCC(C)C)c1=O` [Example 7, 1-allyl-3-isopentyl-8-methyl xanthine] showed an ED50 [1, 14] of 1.03 mg/kg.

For `CNC1=Nc2ccc(Cl)cc2C(c2ccccc2)=[N+]([O-])C1` [chlordiazepoxide, reference compound], the ED50 ([1]; po) was 12 mg/kg.

For `CCCCn1c(=O)n(C(C)C)c(=O)c2[nH]c(C)nc21` [Example 16, 1-isopropyl-3-butyl-8-methyl xanthine], the ED50 [1, 14] was 1.76 mg/kg.

With `CCCCn1c(=O)c2[nH]c(C)nc2n(CCC)c1=O` [Example 13, 1-butyl-3-propyl-8-methyl xanthine] the ED50 [1, 14] was 1.05 mg/kg.

In the case of `O=C(CCCN1CCC(O)(c2ccc(Cl)cc2)CC1)c1ccc(F)cc1` [haloperidol, reference compound], the ED50 ([1]; po) is reported as 1 mg/kg.
